Test results published in publication PMC10486429, “Investigations Using Albumin Binders to Modify the Tissue Distribution Profile of Radiopharmaceuticals Exemplified with Folate Radioconjugates” (Cancers, 2023).

Experiments:
[1] = target: T1, mouse serum albumin (MSA) in mouse plasma (Mus musculus, UniProt P07724); assay: Ultrafiltration albumin-binding assay of 177Lu-RedFols, mouse plasma; conditions: for Relative albumin-binding affinity: mouse blood plasma, inverse B50 ratio, normalized to the respective (6R or 6S) RedFol-1, set as 1.0; for Albumin-bound fraction: undiluted mouse blood plasma
T1 construct: tissue Rockland Immunochemicals, Inc. Lot No. 32321; host or cells: mouse blood plasma, undiluted and diluted in PBS
Protocol: S11. Relative Albumin-Binding Properties of 177Lu-RedFols
human blood plasma was determined and compared.
Switzerland; HSA: ⁓800 µM), respectively. An ultrafiltration method was applied accord-
ples at 37 °C for 30 min.
unbound) fractions of each sample. The inserts of the filter devices were inverted and
were presented as average of 3 independent experiments.

[2] = tested on: FR-positive KB tumor cells; assay: Uptake and internalization of 177Lu-RedFols in KB tumor cells; type: cell-based, human; conditions: 4 h incubation, percent of total added activity
Protocol: The KB cells (a human cervical carcinoma cell line, subclone of HeLa cells, ACC-136) were purchased from the German Collection of Microorganisms and Cell Cultures (DSMZ, Germany). The tumor cells were cultured in folate-deficient RPMI medium (FFRPMI, Cell Culture Technologies GmbH, Gravesano, Switzerland) supplemented with 10% fetal calf serum, […] and antibiotics.
The experiments to investigate the uptake and internalization of ^177Lu-RedFols (50 MBq/nmol) were performed according to a previously established protocol (Supplementary Materials Section S9). The results were presented as a percentage of total added activity and listed as the average ± SD of 3–6 independent experiments, each performed in triplicates. The data were analyzed for statistical significance using a one-way ANOVA with Tukey’s post-comparison test (GraphPad Prism software version 8) considering a p-value < 0.05 as statistically significant. […]
S8. Radiolabeling and Radiolytic Stability of Folate Radioconjugates
Purpose: RedFols were labeled with lutetium-177 and assessed for their in vitro sta- […]
Methods: Folate conjugates were dissolved in Milli-Q water containing 4–6% sodium ascorbate (0.5 M) to obtain a final concentration of 1 mM. Radiolabeling of the RedFols with lutetium-177 (no-carrier-added, in 0.04 M HCl; ITM Medical Isotopes GmbH, Mu-nich, Germany) was performed using a mixture of sodium acetate (0.5 M) and HCl (0.05 M) at pH ~4.5 in the presence of L-ascorbic acid (6 mg) as previously reported for […]
RedFol-1 (6R and 6S). […]
S9. Uptake and Internalization of 177Lu-RedFols
Purpose: Uptake and internalization studies were performed with all folate radiocon-jugates using folate receptor (FR)-positive KB tumor cells.
Methods: The experiments were performed as previously reported. KB tumor cells (human cervical cancer cell line, ACC-136) were seeded into poly-lysine-coated 12-well plates (0.5 × 10^6 cells in 2 mL per well) using folate-free RPMI (FFRPMI) medium supplemented with 10% fetal calf serum, glutamine and antibiotics. The tumor cells were incubated overnight to allow adhesion and growth at 37 °C and 5% CO2. After removal of the supernatant, the KB cells were rinsed with PBS prior to the addition of FFRPMI me-dium without supplements (975 µL/well). The folate radioconjugates (50 MBq/nmol) were added to each well in a volume of 25 µL (0.75 pmol, 38 kBq). In some wells, KB tumor cells were co-incubated with excess folic acid (100 µM) to block the FRs on the cell surface.
After incubation of the well plates for 2 h or 4 h at 37 °C and 5% CO2, the KB tumor cells were rinsed three times with ice-cold PBS to determine the total uptake of the folate radi-oconjugates. In order to assess the internalized fraction, a stripping buffer (aqueous solu-tion of 0.1 M acetic acid and 0.15 M NaCl, pH 3) was applied to release FR-bound folate radioconjugates from the cell surface. Cell samples were lysed by addition of NaOH solu-tion (1 M, 1 mL) to each well. The cell lysates were counted for activity in a γ-counter (Perkin Elmer, Wallac Wizard 1480, Waltham, MA, USA). The protein concentrations of […]
each sample were determined using a Micro BCA Protein Assay kit (Pierce, Thermo Sci-entific) in order to standardize the measured activity to the average content of protein in […]
Results: The results are presented in the main article and in Figure S1.
Figure S1. Uptake and internalization of folate radioconjugates in KB tumor cells after an incubation period of 2 h and 4 h at 37°C. (A) Uptake of the folate radioconjugates in KB tumor cells. (B) Inter-nalized fraction of folate radioconjugates in KB tumor cells. The data are expressed as average ± SD […]
S10. FR-binding Affinity (KD Values) of 177Lu-RedFols
Purpose: The folate radioconjugates were investigated in vitro in order to determine their FR-binding affinities (KD values).
Methods: The determination of the KD values was performed as previously reported […]

T1 sequence (P07724 25-608): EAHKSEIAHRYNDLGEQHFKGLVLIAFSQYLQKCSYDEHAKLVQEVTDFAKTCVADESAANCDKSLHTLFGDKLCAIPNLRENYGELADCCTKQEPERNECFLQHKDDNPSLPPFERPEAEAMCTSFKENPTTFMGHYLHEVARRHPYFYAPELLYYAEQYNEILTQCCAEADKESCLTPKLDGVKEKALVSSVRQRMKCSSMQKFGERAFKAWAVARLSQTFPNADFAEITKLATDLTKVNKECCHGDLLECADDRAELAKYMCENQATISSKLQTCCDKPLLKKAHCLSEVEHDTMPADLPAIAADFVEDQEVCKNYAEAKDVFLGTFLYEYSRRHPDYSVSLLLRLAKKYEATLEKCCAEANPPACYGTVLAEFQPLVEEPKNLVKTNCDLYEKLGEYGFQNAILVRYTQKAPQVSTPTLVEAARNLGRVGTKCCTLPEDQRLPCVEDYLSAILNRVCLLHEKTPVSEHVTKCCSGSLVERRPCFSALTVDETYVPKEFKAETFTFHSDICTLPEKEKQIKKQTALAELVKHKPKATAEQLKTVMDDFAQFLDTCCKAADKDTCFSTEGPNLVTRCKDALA

Row | SMILES | Relative albumin-binding affinity [1] | Albumin-bound fraction [1] [%] | Cell-Internalized Fraction [2] [%] | Total Cell Uptake [2] [%]
1 | CN1c2c(nc(N)[nH]c2=O)NC[C@H]1CNc1ccc(C(=O)N[C@@H](CCC(=O)N[C@@H](CCCCNC(=O)CN2CCN(CC(=O)O)CCN(CC(=O)O)CCN(CC(=O)O)CC2)C(=O)N[C@@H](CCCCNC(=O)CCCc2ccc(I)cc2)C(=O)O)C(=O)O)cc1 [[^177Lu]Lu-6R-RedFol-1, metal not drawn] | 1.0 | 93 | 12 ± 2 | 49 ± 11
2 | CN1c2c(nc(N)[nH]c2=O)NC[C@H]1CNc1ccc(C(=O)N[C@@H](CCC(=O)N[C@@H](CCCCNC(=O)CN2CCN(CC(=O)O)CCN(CC(=O)O)CCN(CC(=O)O)CC2)C(=O)N[C@@H](CCCCNC(=O)c2ccc(CNC(=O)CCCc3ccc(I)cc3)cc2)C(=O)O)C(=O)O)cc1 [[^177Lu]Lu-6R-RedFol-3, metal not drawn] | 8.4 | 97 | 19 ± 8 | 39 ± 14
3 | CN1c2c(nc(N)[nH]c2=O)NC[C@H]1CNc1ccc(C(=O)N[C@@H](CCC(=O)N[C@@H](CCCCNC(=O)CN2CCN(CC(=O)O)CCN(CC(=O)O)CCN(CC(=O)O)CC2)C(=O)N[C@@H](CCCCNC(=O)CCCCc2ccc(I)cc2)C(=O)O)C(=O)O)cc1 [[^177Lu]Lu-6R-RedFol-24, metal not drawn] | 0.2 | 73 | 15 ± 1 | 40 ± 6
4 | CN1c2c(nc(N)[nH]c2=O)NC[C@H]1CNc1ccc(C(=O)N[C@@H](CCC(=O)N[C@@H](CCCCNC(=O)CN2CCN(CC(=O)O)CCN(CC(=O)O)CCN(CC(=O)O)CC2)C(=O)N[C@@H](CCCCNC(=O)c2ccc(CNC(=O)CCCCc3ccc(I)cc3)cc2)C(=O)O)C(=O)O)cc1 [[^177Lu]Lu-6R-RedFol-25, metal not drawn] | 1.4 | 94 | 17 ± 3 | 29 ± 8
5 | CN1c2c(nc(N)[nH]c2=O)NCC1CNc1ccc(C(=O)NC(CCC(=O)NC(CCCCNC(=O)CN2CCN(CC(=O)[O-])CCN(CC(=O)[O-])CCN(CC(=O)[O-])CC2)C(=O)NC(CCCCNC(=O)CCCc2ccc(I)cc2)C(=O)O)C(=O)O)cc1.[177Lu+3] (stereo not drawn) [[^177Lu]Lu-6S-RedFol-1] | 1.0 | 93 | 18 ± 1 | 62 ± 6
6 | CN1c2c(nc(N)[nH]c2=O)NCC1CNc1ccc(C(=O)NC(CCC(=O)NC(CCCCNC(=O)CN2CCN(CC(=O)[O-])CCN(CC(=O)[O-])CCN(CC(=O)[O-])CC2)C(=O)NC(CCCCNC(=O)c2ccc(CNC(=O)CCCc3ccc(I)cc3)cc2)C(=O)O)C(=O)O)cc1.[177Lu+3] (stereo not drawn) [[^177Lu]Lu-6S-RedFol-3] | 3.5 | 97 | 23 ± 8 | 44 ± 11
7 | CN1c2c(nc(N)[nH]c2=O)NCC1CNc1ccc(C(=O)NC(CCC(=O)NC(CCCCNC(=O)CN2CCN(CC(=O)[O-])CCN(CC(=O)[O-])CCN(CC(=O)[O-])CC2)C(=O)NC(CCCCNC(=O)c2ccc(CNC(=O)CCCCc3ccc(I)cc3)cc2)C(=O)O)C(=O)O)cc1.[177Lu+3] (stereo not drawn) [[^177Lu]Lu-6S-RedFol-25] | 0.7 | 92 | 31 ± 3 | 55 ± 5
